In PubChem BioAssay (NCI):
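Values below derive from 48-hour exposures of cells grown in 96-well plates, with endpoints linearly interpolated between the two concentrations bracketing the appropriate inhibition level. GI50 is the concentration that inhibits growth by half. TGI denotes the concentration required for complete inhibition of growth.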

How the values were obtained:
Experiment in all cases: NCI tumour cell line growth inhibition, 48 h
MOLT-4 leukemia = test system: MOLT-4 leukemia
SF-295 CNS = test system: SF-295 CNS
MDA-MB-231 breast = test system: MDA-MB-231 breast
SN12C renal = test system: SN12C renal
SF-539 CNS = test system: SF-539 CNS
SR leukemia = test system: SR leukemia
SK-MEL-2 melanoma = test system: SK-MEL-2 melanoma
SK-MEL-5 melanoma = test system: SK-MEL-5 melanoma
LOX IMVI melanoma = test system: LOX IMVI melanoma
OVCAR-5 ovarian = test system: OVCAR-5 ovarian
HCT-116 colon = test system: HCT-116 colon
SK-OV-3 ovarian = test system: SK-OV-3 ovarian
A549 NSCLC = test system: A549 NSCLC
U251 CNS = test system: U251 CNS
COLO 205 colon = test system: COLO 205 colon
UACC-62 melanoma = test system: UACC-62 melanoma
786-0 renal = test system: 786-0 renal
BT-549 breast = test system: BT-549 breast
HOP-62 NSCLC = test system: HOP-62 NSCLC
RPMI-8226 leukemia = test system: RPMI-8226 leukemia
NCI/ADR-RES ovarian = test system: NCI/ADR-RES ovarian
OVCAR-4 ovarian = test system: OVCAR-4 ovarian
SF-268 CNS = test system: SF-268 CNS
RXF 393 renal = test system: RXF 393 renal
HS 578T breast = test system: HS 578T breast
KM12 colon = test system: KM12 colon
HL-60(TB) leukemia = test system: HL-60(TB) leukemia
OVCAR-8 ovarian = test system: OVCAR-8 ovarian
HT29 colon = test system: HT29 colon
NCI-H460 lung = test system: NCI-H460 lung
SW-620 colon = test system: SW-620 colon
UO-31 renal = test system: UO-31 renal
MCF7 breast = test system: MCF7 breast
SK-MEL-28 melanoma = test system: SK-MEL-28 melanoma
HOP-92 NSCLC = test system: HOP-92 NSCLC
DU-145 prostate = test system: DU-145 prostate
IGROV1 ovarian = test system: IGROV1 ovarian
SNB-19 CNS = test system: SNB-19 CNS
SNB-75 CNS = test system: SNB-75 CNS
ACHN renal = test system: ACHN renal
CAKI-1 renal = test system: CAKI-1 renal
NCI-H23 lung = test system: NCI-H23 lung
MALME-3M melanoma = test system: MALME-3M melanoma
M14 melanoma = test system: M14 melanoma
NCI-H226 lung = test system: NCI-H226 lung
HCT-15 colon = test system: HCT-15 colon
PC-3 prostate = test system: PC-3 prostate
NCI-H522 lung = test system: NCI-H522 lung
EKVX NSCLC = test system: EKVX NSCLC
HCC-2998 colon = test system: HCC-2998 colon
T-47D breast = test system: T-47D breast
K-562 leukemia = test system: K-562 leukemia
A498 renal = test system: A498 renal
TK-10 renal = test system: TK-10 renal
CCRF-CEM leukemia = test system: CCRF-CEM leukemia
UACC-257 melanoma = test system: UACC-257 melanoma
MDA-MB-435 = test system: MDA-MB-435

## CCn1c2ccccc2c2cc(-n3nncc3-c3ccccc3)ccc21
MOLT-4 leukemia
  GI50: 0.35 µM
  TGI: > 100 µM
SF-295 CNS
  GI50: 0.0459 µM
  TGI: > 100 µM
MDA-MB-231 breast
  GI50: 0.54 µM
  TGI: > 100 µM
SN12C renal
  GI50: 0.8 µM
  TGI: > 100 µM
SF-539 CNS
  GI50: 0.123 µM
  TGI: 0.754 µM
SR leukemia
  GI50: 0.0375 µM
  TGI: > 100 µM
SK-MEL-2 melanoma
  GI50: 0.104 µM
  TGI: > 31.2 µM
SK-MEL-5 melanoma
  GI50: 0.435 µM
  TGI: 4.02 µM
LOX IMVI melanoma
  GI50: 0.129 µM
  TGI: > 100 µM
OVCAR-5 ovarian
  GI50: 0.41 µM
  TGI: > 100 µM
HCT-116 colon
  GI50: 0.0722 µM
SK-OV-3 ovarian
  GI50: 0.383 µM
  TGI: > 100 µM
A549 NSCLC
  GI50: 0.208 µM
  TGI: > 100 µM
U251 CNS
  GI50: 0.116 µM
  TGI: > 100 µM
COLO 205 colon
  GI50: 0.134 µM
  TGI: 0.438 µM
UACC-62 melanoma
  GI50: 0.0618 µM
  TGI: > 100 µM
786-0 renal
  GI50: 0.34 µM
  TGI: > 100 µM
BT-549 breast
  GI50: 0.147 µM
  TGI: 2.03 µM
HOP-62 NSCLC
  GI50: 0.141 µM
  TGI: > 100 µM
RPMI-8226 leukemia
  GI50: 0.289 µM
  TGI: > 71.2 µM
NCI/ADR-RES ovarian
  GI50: 0.0534 µM
  TGI: > 100 µM
OVCAR-4 ovarian
  GI50: 29.7 µM
  TGI: > 100 µM
SF-268 CNS
  GI50: 0.843 µM
  TGI: > 100 µM
RXF 393 renal
  GI50: 0.13 µM
  TGI: > 100 µM
HS 578T breast
  GI50: 0.0615 µM
  TGI: > 100 µM
KM12 colon
  GI50: 0.049 µM
HL-60(TB) leukemia
  GI50: 0.0697 µM
  TGI: > 20.3 µM
OVCAR-8 ovarian
  GI50: 0.3 µM
  TGI: > 100 µM
HT29 colon
  GI50: 0.117 µM
  TGI: 0.927 µM
NCI-H460 lung
  GI50: 0.081 µM
  TGI: > 62.6 µM
SW-620 colon
  GI50: 0.0732 µM
  TGI: > 100 µM
UO-31 renal
  GI50: 0.649 µM
  TGI: > 100 µM
MCF7 breast
  GI50: 0.269 µM
  TGI: > 100 µM
SK-MEL-28 melanoma
  GI50: > 64.4 µM
  TGI: > 100 µM
HOP-92 NSCLC
  TGI: > 77.6 µM
DU-145 prostate
  GI50: 0.375 µM
IGROV1 ovarian
  GI50: 0.164 µM
  TGI: > 100 µM
SNB-19 CNS
  GI50: 0.285 µM
  TGI: > 100 µM
SNB-75 CNS
  GI50: 0.0266 µM
  TGI: 0.262 µM
ACHN renal
  GI50: 0.301 µM
  TGI: > 100 µM
CAKI-1 renal
  GI50: 0.0775 µM
  TGI: > 100 µM
NCI-H23 lung
  GI50: 0.375 µM
  TGI: > 100 µM
MALME-3M melanoma
  GI50: 2.43 µM
  TGI: > 100 µM
M14 melanoma
  GI50: 0.0829 µM
  TGI: > 100 µM
NCI-H226 lung
  GI50: 0.519 µM
  TGI: > 100 µM
HCT-15 colon
  GI50: 0.067 µM
  TGI: > 100 µM
PC-3 prostate
  GI50: 0.139 µM
  TGI: > 100 µM
NCI-H522 lung
  GI50: 0.0302 µM
  TGI: 0.145 µM
EKVX NSCLC
  GI50: 0.532 µM
  TGI: > 100 µM
HCC-2998 colon
  GI50: 0.277 µM
  TGI: > 52.4 µM
T-47D breast
  TGI: > 100 µM
K-562 leukemia
  GI50: 0.0407 µM
  TGI: > 100 µM
A498 renal
  GI50: 0.0954 µM
  TGI: 0.799 µM
TK-10 renal
  GI50: > 73.8 µM
  TGI: > 100 µM
CCRF-CEM leukemia
  GI50: 0.203 µM
  TGI: > 100 µM
UACC-257 melanoma
  GI50: 22.2 µM
  TGI: > 100 µM

## COc1cc2c(cc1OC)C(Sc1ccc(F)cc1)c1c(nc(N)c(C#N)c1N)O2 (centres undefined)
MOLT-4 leukemia
  GI50: 0.382 µM
  TGI: > 100 µM
SF-295 CNS
  GI50: 1.62 µM
  TGI: 3 µM
MDA-MB-231 breast
  GI50: 1.36 µM
  TGI: 2.7 µM
SN12C renal
  GI50: 1.13 µM
  TGI: 2.36 µM
SF-539 CNS
  GI50: 1.19 µM
  TGI: 2.49 µM
SR leukemia
  GI50: 0.281 µM
  TGI: > 100 µM
SK-MEL-2 melanoma
  GI50: 0.859 µM
  TGI: 2.14 µM
SK-MEL-5 melanoma
  GI50: 1.57 µM
  TGI: 2.95 µM
LOX IMVI melanoma
  GI50: 0.325 µM
  TGI: 1.09 µM
OVCAR-5 ovarian
  GI50: 1.65 µM
  TGI: 3.11 µM
HCT-116 colon
  GI50: 0.78 µM
  TGI: 2.14 µM
SK-OV-3 ovarian
  GI50: 1.74 µM
  TGI: 3.17 µM
A549 NSCLC
  GI50: 1.53 µM
  TGI: 3 µM
U251 CNS
  GI50: 0.738 µM
  TGI: 2.08 µM
COLO 205 colon
  GI50: 1.1 µM
  TGI: 2.47 µM
MDA-MB-435
  GI50: 1.22 µM
  TGI: 2.54 µM
UACC-62 melanoma
  GI50: 1.2 µM
  TGI: 2.5 µM
786-0 renal
  GI50: 1.09 µM
  TGI: 2.32 µM
BT-549 breast
  GI50: 0.76 µM
  TGI: 2.17 µM
HOP-62 NSCLC
  GI50: 1.71 µM
  TGI: 3.19 µM
RPMI-8226 leukemia
  GI50: 0.754 µM
OVCAR-4 ovarian
  GI50: 1.54 µM
  TGI: 2.93 µM
SF-268 CNS
  GI50: 1.39 µM
  TGI: 2.9 µM
RXF 393 renal
  GI50: 0.751 µM
  TGI: 2.03 µM
HS 578T breast
  GI50: 1.68 µM
  TGI: 4.92 µM
KM12 colon
  GI50: 1.48 µM
  TGI: 2.9 µM
HL-60(TB) leukemia
  GI50: 0.319 µM
  TGI: 1.28 µM
OVCAR-8 ovarian
  GI50: 1.26 µM
  TGI: 2.54 µM
HT29 colon
  GI50: 1.6 µM
  TGI: 3.21 µM
NCI-H460 lung
  GI50: 1.27 µM
  TGI: 2.96 µM
SW-620 colon
  GI50: 0.709 µM
  TGI: 2.04 µM
UO-31 renal
  GI50: 0.511 µM
  TGI: 1.93 µM
MCF7 breast
  GI50: 0.477 µM
  TGI: 2.04 µM
SK-MEL-28 melanoma
  GI50: 0.982 µM
  TGI: 2.34 µM
HOP-92 NSCLC
  GI50: 1.19 µM
  TGI: 2.64 µM
DU-145 prostate
  GI50: 1.58 µM
  TGI: 2.92 µM
IGROV1 ovarian
  GI50: 0.534 µM
  TGI: 1.95 µM
SNB-19 CNS
  GI50: 1.25 µM
  TGI: 2.54 µM
SNB-75 CNS
  GI50: 1.33 µM
  TGI: 2.7 µM
ACHN renal
  GI50: 1.61 µM
  TGI: 2.98 µM
CAKI-1 renal
  GI50: 1.04 µM
  TGI: 2.22 µM
NCI-H23 lung
  GI50: 1.27 µM
  TGI: 2.85 µM
MALME-3M melanoma
  GI50: 1.2 µM
  TGI: 2.54 µM
M14 melanoma
  GI50: 1.16 µM
  TGI: 2.49 µM
HCT-15 colon
  GI50: 0.399 µM
  TGI: 1.66 µM
PC-3 prostate
  GI50: 1.05 µM
  TGI: 2.47 µM
NCI-H522 lung
  GI50: 1.25 µM
  TGI: 2.53 µM
EKVX NSCLC
  GI50: 1.46 µM
  TGI: 2.84 µM
HCC-2998 colon
  GI50: 1.51 µM
  TGI: 2.97 µM
K-562 leukemia
  GI50: 0.426 µM
  TGI: > 100 µM
A498 renal
  GI50: 1.29 µM
  TGI: 2.57 µM
TK-10 renal
  GI50: 1.47 µM
  TGI: 2.8 µM
CCRF-CEM leukemia
  GI50: 0.164 µM
  TGI: > 100 µM
UACC-257 melanoma
  GI50: 1.34 µM
  TGI: 2.67 µM
